According to US20020035061A1, “COMPOSITIONS AND METHODS FOR TREATING INFECTIONS USING CATIONIC PEPTIDES ALONE OR IN COMBINATION WITH ANTIBIOTICS” (priority 1996, published 2002):

Columns and labels:
Assay in all cases: microbe, parasite or virus in culture
Assay type in all cases: cell-based
[1] = tested on: vancomycin / teicoplanin resistant enterococci; conditions: for Peptide MIC Alone: Amikacin section; for FIC: peptide + Amikacin
[2] = tested on: microorganisms with acquired resistance; conditions: for Peptide MIC: in µg/mL
[3] = tested on: inherently resistant microorganisms; conditions: S. aureus MRSA

KKWWRRALQGLKTAGPAIQSVLNK [MBI 21A2]
Amikacin MIC + Peptide ([1]; E. faecalis EFS008): 8 µg/mL
Peptide MIC + Amikacin ([1]; E. faecalis EFS008): 16 µg/mL
Peptide MIC Alone ([1]; E. faecalis EFS008): >128 µg/mL
Amikacin MIC + Peptide ([1]; E. faecium EFM020): 2 µg/mL
Peptide MIC + Amikacin ([1]; E. faecium EFM020): 64 µg/mL
Peptide MIC Alone ([1]; E. faecium EFM020): 128 µg/mL
FIC ([1]; E. faecalis EFS008): 0.19
FIC ([1]; E. faecium EFM020): 0.56
Gentamicin MIC + Peptide ([2]; A. calcoaceticus AC001): 4 µg/mL
Peptide MIC + Gentamicin ([2]; A. calcoaceticus AC001): 8 µg/mL
Peptide MIC Alone ([2]; A. calcoaceticus AC001, Gentamicin section): 16 µg/mL
Peptide MIC + Piperacillin ([2]; E. coli 1): 2 µg/mL
Piperacillin MIC + Peptide ([2]; E. coli 1): 8 µg/mL
Peptide MIC Alone ([2]; E. coli 1, Piperacillin section): 4 µg/mL
Peptide MIC + Piperacillin ([2]; H. influenzae 1): 64 µg/mL
Piperacillin MIC + Peptide ([2]; H. influenzae 1): 4 µg/mL
Peptide MIC Alone ([2]; H. influenzae 1, Piperacillin section): >128 µg/mL
Peptide MIC + Piperacillin ([2]; H. influenzae 2): 64 µg/mL
Piperacillin MIC + Peptide ([2]; H. influenzae 2): 4 µg/mL
Peptide MIC Alone ([2]; H. influenzae 2, Piperacillin section): >128 µg/mL
Amikacin MIC + Peptide ([2]; P. aeruginosa PA022): 16 µg/mL
Gentamicin MIC + Peptide ([2]; P. aeruginosa PA022): 2 µg/mL
Peptide MIC + Amikacin ([2]; P. aeruginosa PA022): 2 µg/mL
Peptide MIC + Gentamicin ([2]; P. aeruginosa PA022): 4 µg/mL
Peptide MIC Alone ([2]; P. aeruginosa PA022, Amikacin section): 8 µg/mL
Peptide MIC Alone ([2]; P. aeruginosa PA022, Gentamicin section): 8 µg/mL
Ciprofloxacin MIC + Peptide ([2]; P. aeruginosa PA41): 1 µg/mL
Peptide MIC + Ciprofloxacin ([2]; P. aeruginosa PA41): 16 µg/mL
Peptide MIC Alone ([2]; P. aeruginosa PA41, Ciprofloxacin section): 64 µg/mL
Ciprofloxacin MIC + Peptide ([2]; P. aeruginosa PA77): 0.25 µg/mL
Peptide MIC + Ciprofloxacin ([2]; P. aeruginosa PA77): 32 µg/mL
Peptide MIC Alone ([2]; P. aeruginosa PA77, Ciprofloxacin section): 64 µg/mL
Peptide MIC ([2]; P. aeruginosa, combination with Ciprofloxacin): 16
Peptide MIC ([2]; S. aureus, combination with Ciprofloxacin): 4
Peptide MIC ([2]; S. aureus, combination with Mupirocin): 32
Peptide MIC + Piperacillin ([2]; S. maltophilia 3): 16 µg/mL
Piperacillin MIC + Peptide ([2]; S. maltophilia 3): 16 µg/mL
Peptide MIC Alone ([2]; S. maltophilia 3, Piperacillin section): 32 µg/mL
Peptide MIC + Piperacillin ([2]; S. maltophilia 11): 64 µg/mL
Piperacillin MIC + Peptide ([2]; S. maltophilia 11): 8 µg/mL
Peptide MIC Alone ([2]; S. maltophilia 11, Piperacillin section): 128 µg/mL
Gentamicin MIC + Peptide ([2]; S. maltophilia SMA020): 0.125 µg/mL
Peptide MIC + Gentamicin ([2]; S. maltophilia SMA020): 8 µg/mL
Peptide MIC Alone ([2]; S. maltophilia SMA020, Gentamicin section): 16 µg/mL
Gentamicin MIC + Peptide ([2]; S. maltophilia SMA021): 0.125 µg/mL
Peptide MIC + Gentamicin ([2]; S. maltophilia SMA021): 8 µg/mL
Peptide MIC Alone ([2]; S. maltophilia SMA021, Gentamicin section): 16 µg/mL
Peptide MIC + Piperacillin ([2]; S. marcescens 1): 4 µg/mL
Piperacillin MIC + Peptide ([2]; S. marcescens 1): 16 µg/mL
Peptide MIC Alone ([2]; S. marcescens 1, Piperacillin section): >128 µg/mL
FIC ([2]; peptide + Amikacin, P. aeruginosa PA022): 0.50
FIC ([2]; peptide + Ciprofloxacin, P. aeruginosa PA41): 0.50
FIC ([2]; peptide + Ciprofloxacin, P. aeruginosa PA77): 0.63
FIC ([2]; peptide + Gentamicin, A. calcoaceticus AC001): 1.00
FIC ([2]; peptide + Gentamicin, P. aeruginosa PA022): 0.56
FIC ([2]; peptide + Gentamicin, S. maltophilia SMA020): 0.50
FIC ([2]; peptide + Gentamicin, S. maltophilia SMA021): 0.50
FIC ([2]; peptide + Piperacillin, E. coli 1): 0.53
FIC ([2]; peptide + Piperacillin, H. influenzae 1): 0.31
FIC ([2]; peptide + Piperacillin, H. influenzae 2): 0.28
FIC ([2]; peptide + Piperacillin, S. maltophilia 3): 0.75
FIC ([2]; peptide + Piperacillin, S. maltophilia 11): 0.75
FIC ([2]; peptide + Piperacillin, S. marcescens 1): 0.27
Peptide MIC + Amikacin [3]: 1 µg/mL
Peptide MIC + Piperacillin [3]: 64 µg/mL
Peptide MIC Alone ([3]; Amikacin section): 2 µg/mL
Peptide MIC Alone ([3]; Piperacillin section): >128 µg/mL
FIC ([3]; peptide + Amikacin): 0.56
FIC ([3]; peptide + Piperacillin): 0.25
